{
  "source": "patent US12583900B2",
  "about": "“Peptide conjugates and methods of use” (The Scripps Research Institute, priority 2019, dated 2026)",
  "type_in_all_cases": "in vivo, mouse",
  "key": {"[1]": {"system": "DIO mice (C57BL/6)", "assay": "DIO mice study, daily s.c. dosing 21 days, plasma and liver analyses (28-week old)", "text": "All animal care and experimental procedures were approved by the Institutional Animal Care and Use Committee (IACUC) of California Institute for Biomedical Research (Calibr) and strictly followed the NIH guidelines for humane treatment of animals. The results are expressed as means S.E., and the data were compared using the unpaired Student's t test. Where appropriate, data were compared using repeated measures or one-way analysis of variance, followed by the Student-Newman-Keuls post hoc test. Incremental area under the curve (AUC) analyses for plasma glucose was calculated using GraphPad Prism 6.\nDIO mice (C57BL/6, male, 28-week old) were randomized based on their body weight and were treated with daily subcutaneous injections of peptide or vehicle (n=7/group). Body weight and food intake were monitored daily throughout the study. At the end of the experiment, mice were sacrificed, and visceral fat mass were weighed. Collected plasma was used for cholesterol level determination according to the manufacturer's guide (cholesterol assay kit, Abcam, Cambridge, England) and triglyceride level using a triglyceride colorimetric assay kit (Cayman chemical, Ann Arbor, Michigan).\nCollected plasma was used for cholesterol level determination according to the manufacturer's guide (cholesterol assay kit, Abcam, Cambridge, England). Briefly, plasma was diluted using cholesterol assay buffer and then reacted with the same volume of reaction mix containing cholesterol assay buffer, cholesterol probe, enzyme mix and cholesterol esterase. After incubation at 37° C. for 1 hour, the absorbance at 560 nm was measured using an Envision multilabel plate reader (PerkinElmer, Waltham, MA). Subsequently, the concentration of cholesterol in plasma was calculated according to a standard curve.\nCollected plasma was used for triglyceride level determination using a triglyceride colorimetric assay kit (Cayman chemical, Ann Arbor, Michigan). 5 μL of plasma samples or standard were plated into a 384 well plate and followed by adding 75 μL of diluted enzyme buffer to each well. The mixture was incubated at room temperature for 15 min, and the absorbance was read at 560 nm using an Envision plate reader (PerkinElmer, Waltham, MA). The concentration of triglyceride in plasma was calculated using a standard curve.\nTerminal serum analytes including total cholesterol, triglyceride, alanine aminotransferase (ALT), aspartate aminotransferase (AST), alkaline phosphatase (ALP) were determined by Alfa Wassermann Vet Axcel® clinical analyzer. Hepatic triglycerides were measured in liver homogenates generated with a colorimetric triglyceride kit (Cayman Chemical). Paraformaldehyde-fixed liver were paraffin-embedded, sectioned and stained with hematoxylin-eosin and Picro-Sirius red by HistoTox Labs (Boulder, CO). All histological assessment (steatosis, fibrosis scoring) were performed by a certified histopathologist blind to treatment (HistoTox Labs) based on classification outlined by Kleiner et al.^3"}, "[2]": {"system": "C57BL/6J mice", "assay": "Oral glucose tolerance test 6 h, 48 h, 96 h post dose (GLP-1R/GCGR agonists)", "conditions": "48 h after administration", "procedure": "C57BL/6J mice (n=6/group) between 10-12 weeks old were fasted overnight and then administrated with 5 mL/kg of each peptide in PBS (pH=8.2) by s.c. route. After 6 hours, mice were orally or intraperitoneally administrated with 2 g of glucose solution per kg body weight and their tail blood glucose levels were measured before (0 min) and after glucose challenge for 2 hours. Follow up OGTT were also performed at 48 h, and 96 h post-original dose in same mice after overnight fast.\nThe efficacy of the GLP-1R/GCGR dual agonist 135 was then evaluated in an oral glucose tolerance test (OGTT) in wilt type mice."}, "[3]": {"system": "C57BL/6J mice", "assay": "Oral glucose tolerance test 2 h, 72 h, 96 h, […] post dose (GLP-1R/GIPR agonists)", "procedure": "C57BL/6J mice (n=6/group) between 10-12 weeks old were fasted overnight and then administrated with 5 mL/kg of each peptide in PBS (pH=8.2) by s.c. route. […]"}},
  "data": [
    {"compound": "CCCCCCCCCCCCCCCC(=O)N[C@@H](CCC(=O)NCCCC[C@H](NC(=O)[C@H](CC(=O)O)NC(=O)[C@H](CO)NC(=O)[C@@H](NC(=O)[C@H](Cc1ccccc1)NC(=O)[C@@H](NC(=O)CNC(=O)[C@H](CCC(N)=O)NC(=O)[C@H](CO)NC(=O)[C@@H](N)Cc1c[nH]cn1)[C@@H](C)O)[C@@H](C)O)C(=O)N[C@@H](CO)C(=O)N[C@@H](CCC(=O)O)C(=O)N[C@@H](Cc1ccc(O)cc1)C(=O)N[C@@H](CC(C)C)C(=O)N[C@@H](CC(=O)O)C(=O)N[C@@H](CO)C(=O)N[C@@H](CCC(=O)O)C(=O)N[C@@H](CCCNC(=N)N)C(=O)N[C@@H](C)C(=O)N[C@@H](CCCNC(=N)N)C(=O)N[C@@H](CC(=O)O)C(=O)N[C@@H](Cc1ccccc1)C(=O)N[C@H](C(=O)N[C@@H](C)C(=O)N[C@@H](Cc1c[nH]c2ccccc12)C(=O)N[C@@H](CC(C)C)C(=O)N[C@@H](CCC(=O)O)C(=O)N[C@@H](C)C(=O)NCC(=O)NCC(=O)O)C(C)C)C(=O)O", "note": "[cotadutide]", "values": [
      {"measurement": "plasma glucose excursions in a fasted state", "setting": "[1]; day 21", "result": "significant decrease"},
      {"measurement": "liver to bodyweight ratio", "setting": "[1]; vs vehicle", "result": "significantly decreased"},
      {"measurement": "liver triglyceride level", "setting": "[1]; vs vehicle", "result": "significantly decreased"},
      {"measurement": "liver weight", "setting": "[1]; vs vehicle", "result": "significantly decreased"},
      {"measurement": "glucose handling in OGTT", "setting": "[2]", "result": "did not exhibit any improvement over the vehicle"}
    ]},
    {"compound": "semaglutide", "values": [
      {"measurement": "OGTT blood glucose levels as measured by the AUC vs vehicle", "setting": "[3]; 2 hours post dose", "result": "significant decrease"},
      {"measurement": "fasted glucose levels vs vehicle", "setting": "[3]; 2 hours post treatment", "result": "significant decrease"},
      {"measurement": "OGTT blood glucose levels as measured by the AUC vs vehicle", "setting": "[3]; 72 hours post dose", "result": "significant decrease"},
      {"measurement": "fasted glucose levels vs vehicle", "setting": "[3]; 72 hours post treatment", "result": "significant decrease"},
      {"measurement": "OGTT blood glucose levels as measured by the AUC vs vehicle", "setting": "[3]; 96 hours post dose", "result": "significant decrease"},
      {"measurement": "fasted glucose levels vs vehicle", "setting": "[3]; 96 hours post treatment", "result": "significant decrease"},
      {"measurement": "OGTT blood glucose levels as measured by the AUC vs vehicle", "setting": "[3]; […] post dose", "result": "significant decrease"},
      {"measurement": "fasted glucose levels vs vehicle", "setting": "[3]; […] post treatment", "result": "significant decrease"},
      {"measurement": "food consumption over 20 days vs vehicle", "setting": "[1]; DIO mice, daily s.c.", "result": "reduction"},
      {"measurement": "total bodyweight and percent change from initial bodyweight over 21 days", "setting": "[1]; DIO mice, daily s.c.", "result": "decrease"},
      {"measurement": "plasma glucose excursions in a fed state", "setting": "[1]; day 20", "result": "significant decrease"},
      {"measurement": "OGTT glucose levels over time and AUC", "setting": "[1]; day 21", "result": "significant decrease"},
      {"measurement": "plasma glucose excursions in a fasted state", "setting": "[1]; day 21", "result": "significant decrease"},
      {"measurement": "plasma level of ALP", "setting": "[1]; terminal, vs vehicle", "result": "significantly reduced"},
      {"measurement": "plasma level of ALT", "setting": "[1]; terminal, vs vehicle", "result": "significantly reduced"},
      {"measurement": "plasma level of cholesterol", "setting": "[1]; terminal, vs vehicle", "result": "significantly reduced"},
      {"measurement": "plasma level of triglycerides", "setting": "[1]; terminal, vs vehicle", "result": "significantly reduced"},
      {"measurement": "fat weight", "setting": "[1]; vs vehicle", "result": "significantly reduced"},
      {"measurement": "liver to bodyweight ratio", "setting": "[1]; vs vehicle", "result": "significantly decreased"},
      {"measurement": "liver triglyceride level", "setting": "[1]; vs vehicle", "result": "significantly decreased"},
      {"measurement": "liver weight", "setting": "[1]; vs vehicle", "result": "significantly decreased"},
      {"measurement": "steatosis grade", "setting": "[1]; vs vehicle", "result": "reduced"}
    ]}
  ]
}
